Patent publication US20230212146A1, “TRIARYLPYRIDINE COMPOUNDS AND USE THEREOF FOR TREATING CANCER” (INSTITUT NATIONAL DE LA SANTEET DE LA RECHERCHE …, priority 2020, published 2023)

Legend:
[1] = system: F21T oligonucleotide (human telomeric intramolecular quadruplex); assay: FRET melting analysis, G-quadruplex stabilization; type: binding; details: compounds at 1-10 μM, 0.2 μM F21T, 10 mM KCl, 90 mM LiCl, pH 7.2
Method: Ordinate: melting temperature (Tm) in Celsius scale (° C.). Abscissa (from left to right): (i) Compounds 1a at 10 μM, 5 μM, 2.5 μM, 1 μM; (ii) Compounds 1b at 10 μM, 5 μM, 2.5 μM, 1 μM; (iii) Compounds 1c at 10 μM, 5 μM, 2.5 μM, 1 μM.
FRET melting experiments were conducted using the F21T oligonucleotide.

[2] = system: HeLa cells; assay: MTT cell viability assay; type: cell-based, human; details: 24 h treatment, mean of 4 independent experiments in quadruplicate
Method: HeLa cells were treated with 1 μM to 10 μM concentrations of compounds 20A (▾), 1a (grey ▴), 1b (●) and 1c (▪) for 24h. Cell viability was assessed by the MMT assay. Plotted are mean±SD of one representative experiment each performed in quadruplicate. IC50 is scored for each compound from 4 independent experiments performed in quadruplicate. Ordinate: Percentage of HeLa cell viability. Abscissa: Concentrations of compounds 20A, 1a, 1b and 1c.
MTT assay was used to monitor cell viability in HeLa cells subjected to different treatments. Briefly, cells were seeded in a 96-well plate (4×10^3 cells/well). After 24 h of treatment of cells with drug, MTT was added to each well to a final concentration of 0.5 mg/ml during 3 h at 37° C. The supernatant of cells was then removed, and 100 μl of DMSO was added per well. The absorbance in each well was measured at 570 nm and 630 nm using a Flexstation 3 microplate reader (Molecular Devices). 4 independent experiences were conducered, each performed in quadruplicate. To determine the IC50 of compounds 20A, 1a, 1b and 1c, a non-linear regression curve was fit using GraphPad Prism software.

[3] = system: U2OS expressing Galectin3-mCherry cells; assay: Lysosomal membrane permeabilization (LMP), quantification of Galectin 3 puncta; type: cell-based, human; details: 24 h, 2 μM of 1a, 1 μM of 1b, 1 μM of 1c; for percentage of cells with Gal3 puncta: compound alone, without chloroquine; for percentage of Gal3 puncta positive cells: with 25 μM chloroquine
Method: The data are presented as the mean percentage of 15 values from 5 randomly chosen area in each of the three independent experiments. Ordinate: Percentage of cells with Galectin3 puncta.
Lysosomal membrane damage was assessed thanks to U2OS expressing Galectin3-mCherry cells. […] Cells were then washed with PBS, fixed with 4% (v/v) paraformaldehyde for 10 min at room temperature and then nucleic were counterstained for 15 min with Hoechst 33258. Image acquisition was made with a Leica DMI8 epifluorescence microscope, with a ×20 objective (NA 0.40) equipped with a digital CMOS camera (Hamamatsu photonics) and filter bloc for detection of phase contrast and blue (exc: 325-375 nm/em: 435-485 nm) and red (exc: 541-551 nm/em: 565-605 nm) fluorescence. Each image was collected with identical exposure times and scaled equally. Five images were acquired for each condition and then analyzed thanks to ImageJ software (Schneider et al., 2012, 9(7): 671-675) in order to count manually the number of cells, and automatically the number of Galectin3 punctae within each cell by using the “Find Maxima” tool.

CSc1ccc(-c2cc(-c3ccc(-n4cc(CCCN5CCCC5)nn4)cc3)nc(-c3ccc(-n4cc(CCCN5CCCC5)nn4)cc3)c2)cc1 [Compound 1a]
stabilization of the F21T quadruplex (melting temperature Tm) [1]: stabilize an intramolecular quadruplex
IC50 [2]: 4.34 µM
percentage of cells with Gal3 puncta [3]: 26%
percentage of Gal3 puncta positive cells [3]: 57%

CSc1ccc(-c2cc(-c3ccc(-n4cc(CCCN5CCN(C)CC5)nn4)cc3)nc(-c3ccc(-n4cc(CCCN5CCN(C)CC5)nn4)cc3)c2)cc1 [Compound 1b]
stabilization of the F21T quadruplex (melting temperature Tm) [1]: stabilize an intramolecular quadruplex
IC50 [2]: 3.15 µM
percentage of cells with Gal3 puncta [3]: 31%
percentage of Gal3 puncta positive cells [3]: 56%

CSc1ccc(-c2cc(-c3ccc(-n4cc(CCN5CCN(C)CC5)nn4)cc3)nc(-c3ccc(-n4cc(CCN5CCN(C)CC5)nn4)cc3)c2)cc1 [Compound 1c]
stabilization of the F21T quadruplex (melting temperature Tm) [1]: stabilize an intramolecular quadruplex
IC50 [2]: 3.62 µM
percentage of cells with Gal3 puncta [3]: 25%
percentage of Gal3 puncta positive cells [3]: 45%
